Experimental data reported in patent US9593122B2, “Substituted pyrazolylpyrazole derivative and use of same as herbicide” (KYOYU AGRI CO., LTD., priority 2013, dated 2017).

Experiments:
Format in all cases: in vivo
Chenopodium album [1] = test: Farming soil treatment test; conditions: soil surface spray prior to weed growth, 30 days
Method: (§1) Field soil was filled into a 1/6000 are pot followed by seeding with Digitaria ciliaris, Chenopodium album and Amaranthus retroflexus and covering with soil.
(§2) Wettable powder of compounds of formula (I) shown in Table 1 prepared in compliance with the preparation examples were diluted with water to the prescribed amount of chemical and uniformly sprayed onto each soil surface layer using 10 liters of sprayed water per are prior to weed growth following seeding.
(§3) After treating for 30 days in a glass greenhouse at an average atmospheric temperature of 30° C., the herbicidal efficacy thereof was investigated.
(§4) Evaluation of herbicidal efficacy is carried out in the same manner as the above-mentioned Test Example 1.

Amaranthus retroflexus [2] = test: Farming soil treatment test; conditions: soil surface spray prior to weed growth, 30 days
Method: as §1, §2, §3, §4

Digitaria ciliaris [3] = test: Farming soil treatment test; conditions: soil surface spray prior to weed growth, 30 days
Method: as §1, §2, §3, §4

Rice plants = test: Paddy herbicidal activity test, phytotoxicity to transplanted rice; conditions: rice transplanted at 2.0 leaf stage, 30 days
Method: (§5) Rice paddy soil was filled into a 1/10000 are pot followed by the addition of suitable amounts of water and chemical fertilizer, kneading, seeding with Echinochloa crus-galli, Monochoria vaginalis and Scirpus juncoides and maintaining in an irrigated state at a water depth of 3 cm.
(§6) Wettable powder of Target Compound (I) shown in Table 1 prepared in compliance with the preparation examples were diluted with a suitable amount of water, rice plants in the 2.0 leaf stage were transplanted during 3.5 leaf stage of Echinochloa crus-galli, and treated by dropping in chemical in the prescribed amount per are using a pipette.
as §3
(§7) Evaluation of herbicidal efficacy was carried out by comparing growth inhibition rate (%) with an untreated group, while evaluation of phytotoxicity was carried out by comparing growth inhibition rate (%) with the state of a complete eradication group, and were evaluated at 11 levels indicated below.

Chenopodium album [4] = test: Weed foliar treatment test; conditions: foliar spray, 3 weeks
Method: (§8) Soil was filled into a 1/6000 are pot followed by seeding with Digitaria ciliaris, Chenopodium album and Amaranthus retroflexus, covering with soil, and cultivating in a glass greenhouse at an average atmospheric temperature of 25° C.
(§9) Wettable powder of Target Compound (I) shown in Table 1 prepared in compliance with the preparation examples were diluted with water to the prescribed amount of chemical and uniformly sprayed onto the weeds using 15 liters of sprayed water per are when Digitaria ciliaris had grown to the 1.0 to 2.0 leaf stage.
(§10) After treating for 3 weeks in a glass greenhouse at an average atmospheric temperature of 25° C., the herbicidal efficacy thereof was investigated.
(§11) Evaluation of herbicidal efficacy was carried out in the same manner as the above-mentioned Test Example 1.

Amaranthus retroflexus [5] = test: Weed foliar treatment test; conditions: foliar spray, 3 weeks
Method: as §8, §9, §10, §11

Digitaria ciliaris [6] = test: Weed foliar treatment test; conditions: foliar spray at 1.0 to 2.0 leaf stage of Digitaria ciliaris, 3 weeks
Method: as §8, §9, §10, §11

Echinochloa crus-galli = test: Paddy herbicidal activity test; conditions: irrigated paddy pot, treated at 3.5 leaf stage of Echinochloa crus-galli, 30 days
Method: as §5, §6, §3, §7

Monochoria vaginalis = test: Paddy herbicidal activity test; conditions: irrigated paddy pot, 30 days
Method: as §5, §6, §3, §7

Scirpus juncoides = test: Paddy herbicidal activity test; conditions: irrigated paddy pot, 30 days
Method: as §5, §6, §3, §7

Compound | Chenopodium album herbicidal efficacy (growth inhibition level) (Chenopodium album [1]; 5g a.i./10a) | Chenopodium album herbicidal efficacy (growth inhibition level) (Chenopodium album [1]; 10g a.i./10a) | Amaranthus retroflexus herbicidal efficacy (growth inhibition level) (Amaranthus retroflexus [2]; 5g a.i./10a) | Amaranthus retroflexus herbicidal efficacy (growth inhibition level) (Amaranthus retroflexus [2]; 10g a.i./10a) | Digitaria ciliaris herbicidal efficacy (growth inhibition level) (Digitaria ciliaris [3]; 5g a.i./10a) | Digitaria ciliaris herbicidal efficacy (growth inhibition level) (Digitaria ciliaris [3]; 10g a.i./10a) | Rice plants phytotoxicity (growth inhibition level) (Rice plants; 1g a.i./10a) | Rice plants phytotoxicity (growth inhibition level) (Rice plants; 5g a.i./10a) | Chenopodium album herbicidal efficacy (growth inhibition level) (Chenopodium album [4]; 5g a.i./10a) | Chenopodium album herbicidal efficacy (growth inhibition level) (Chenopodium album [4]; 10g a.i./10a) | Amaranthus retroflexus herbicidal efficacy (growth inhibition level) (Amaranthus retroflexus [5]; 5g a.i./10a) | Amaranthus retroflexus herbicidal efficacy (growth inhibition level) (Amaranthus retroflexus [5]; 10g a.i./10a) | Digitaria ciliaris herbicidal efficacy (growth inhibition level) (Digitaria ciliaris [6]; 5g a.i./10a) | Digitaria ciliaris herbicidal efficacy (growth inhibition level) (Digitaria ciliaris [6]; 10g a.i./10a) | Echinochloa crus-galli herbicidal efficacy (growth inhibition level) (Echinochloa crus-galli; 1g a.i./10a) | Echinochloa crus-galli herbicidal efficacy (growth inhibition level) (Echinochloa crus-galli; 5g a.i./10a) | Monochoria vaginalis herbicidal efficacy (growth inhibition level) (Monochoria vaginalis; 1g a.i./10a) | Monochoria vaginalis herbicidal efficacy (growth inhibition level) (Monochoria vaginalis; 5g a.i./10a) | Scirpus juncoides herbicidal efficacy (growth inhibition level) (Scirpus juncoides; 1g a.i./10a) | Scirpus juncoides herbicidal efficacy (growth inhibition level) (Scirpus juncoides; 5g a.i./10a)
C#CCN(C(=O)C(F)(F)F)c1c(C#N)cnn1-c1nn2c(c1Cl)CCCC2 [Control agent 4.239, reference compound] | 2 (2: 20% to less than 30%) | 3 (3: 30% to less than 40%) | 3 (3: 30% to less than 40%) | 5 (5: 50% to less than 60%) | 4 (4: 40% to less than 50%) | 5 (5: 50% to less than 60%) | 0 (0 (exponent): 0% to less than 10% (growth inhibition rate)) | 1 (1: 10% to less than 20%) | 3 (3: 30% to less than 40%) | 4 (4: 40% to less than 50%) | 4 (4: 40% to less than 50%) | 6 (6: 60% to less than 70%) | 3 (3: 30% to less than 40%) | 5 (5: 50% to less than 60%) | 3 (3: 30% to less than 40%) | 5 (5: 50% to less than 60%) | 1 (1: 10% to less than 20%) | 2 (2: 20% to less than 30%) | 0 (0 (exponent): 0% to less than 10% (growth inhibition rate)) | 1 (1: 10% to less than 20%)
O=[N+]([O-])c1cnn(-c2nn3c(c2Cl)CCCC3)c1NC/C=C\Cl [Compound 32] | 10 (10: 100%) | – | 10 (10: 100%) | 10 (10: 100%) | 10 (10: 100%) | 10 (10: 100%) | – | – | 10 (10: 100%) | 10 (10: 100%) | 10 (10: 100%) | 10 (10: 100%) | 10 (10: 100%) | 10 (10: 100%) | 8 (8: 80% to less than 90%) | 9 (9: 90% to less than 100%) | 9 (9: 90% to less than 100%) | 10 (10: 100%) | 8 (8: 80% to less than 90%) | 10 (10: 100%)
N#Cc1cnn(-c2nn3c(c2Cl)CCCC3)c1N(C/C=C\Cl)C(=O)C(F)(F)F [Compound 21] | 10 (10: 100%) | 10 (10: 100%) | 10 (10: 100%) | 10 (10: 100%) | 10 (10: 100%) | 10 (10: 100%) | – | – | 10 (10: 100%) | 10 (10: 100%) | 10 (10: 100%) | 10 (10: 100%) | 10 (10: 100%) | 10 (10: 100%) | 9 (9: 90% to less than 100%) | 9 (9: 90% to less than 100%) | 9 (9: 90% to less than 100%) | 9 (9: 90% to less than 100%) | 8 (8: 80% to less than 90%) | 10 (10: 100%)
CC=CCN(C(=O)C(F)(F)F)c1c(C#N)cnn1-c1nn2c(c1Cl)CCCC2 (mixture of isomers) [Compound 24] | 10 (10: 100%) | 10 (10: 100%) | 10 (10: 100%) | 10 (10: 100%) | 10 (10: 100%) | 10 (10: 100%) | – | – | 10 (10: 100%) | 10 (10: 100%) | 10 (10: 100%) | 10 (10: 100%) | 10 (10: 100%) | 10 (10: 100%) | 9 (9: 90% to less than 100%) | 10 (10: 100%) | 8 (8: 80% to less than 90%) | 9 (9: 90% to less than 100%) | 8 (8: 80% to less than 90%) | 9 (9: 90% to less than 100%)
C=C(Cl)CNc1c([N+](=O)[O-])cnn1-c1nn2c(c1Cl)CCCC2 [Compound 30] | 10 (10: 100%) | 10 (10: 100%) | 10 (10: 100%) | 10 (10: 100%) | 10 (10: 100%) | 10 (10: 100%) | – | – | 10 (10: 100%) | 10 (10: 100%) | 10 (10: 100%) | 10 (10: 100%) | 10 (10: 100%) | 10 (10: 100%) | 9 (9: 90% to less than 100%) | 10 (10: 100%) | 9 (9: 90% to less than 100%) | 10 (10: 100%) | 8 (8: 80% to less than 90%) | 10 (10: 100%)
CC=CCNc1c(C#N)cnn1-c1nn2c(c1Cl)CCCC2 (mixture of isomers) [Compound 12] | 10 (10: 100%) | 10 (10: 100%) | 10 (10: 100%) | 10 (10: 100%) | 10 (10: 100%) | 10 (10: 100%) | – | – | 10 (10: 100%) | 10 (10: 100%) | 10 (10: 100%) | 10 (10: 100%) | 10 (10: 100%) | 10 (10: 100%) | 9 (9: 90% to less than 100%) | 10 (10: 100%) | 9 (9: 90% to less than 100%) | 10 (10: 100%) | 8 (8: 80% to less than 90%) | 9 (9: 90% to less than 100%)
